From patent publication US12268682B2, “Anticancer drug FL118 formulation for treatment of human cancer” (CANGET BIOTEKPHARMA, LLC, priority 2019, dated 2025)
Like-named read-outs stand apart in the source and are kept apart here.

Columns and labels:
[1] = test system: human tumors; details: cited from earlier work
[2] = test system: cancer cell growth; details: cited from earlier work
[3] = test system: cisplatin-resistant pancreatic cancer cells; details: cited from earlier work
[4] = biological target: topoisomerase I (Top1) (Homo sapiens, UniProt P11387); details: cited from earlier work
[5] = test system: T-cells and NK-cells; experiment: Toxicity of FL118 on immune effector cells; type: cell-based, human; details: up to 100 nM
Protocol: Toxicity of FL118 on immune effector cells: Cryopreserved BMMNCs derived from MM patients or plasma cell leukemia (PCL) patients, were treated with various concentrations of FL118. After 24 hours, viable CD45^+ CD3^+ T-cells and CD45^+ CD56^+ CD14^− CD3^− NK-cells were enumerated by multiparameter flow cytometry. Additionally, healthy-donor peripheral blood mononuclear cells (PBMCs) were seeded in 96-well flat-bottom plates at 1×10^5 cells/well, stimulated with PMA (25 ng/mL) and ionomycin (500 ng/mL) (both Santa Cruz Biotechnology) for 24 hours, and subsequently treated with FL118 for 48 hours before determining activated CD45^+ CD3^+ CD56^− CD25^+ T-cells by flow cytometry. The percentage cell survival was then calculated using the following formula: % immune cell survival=absolute number of viable immune cells in treated wells/mean absolute number of viable immune cells in untreated wells×100%.

[6] = test system: BMMSCs; experiment: BMMSC viability (Cell TiterGlo)
Protocol: A pool (n=12) of newly diagnosed-MM patient derived BMMSCs were treated with serial concentrations of FL118. Cell viability was determined by Cell TiterGlo after indicated period of time. Error bars represent the SD of three independent experiments.
Bone Marrow derived Mesenchymal stromal cells (BMMSCs): Diagnostic BM aspirations from MM patients were used to isolate BMMNCs and culture adherent BMMSCs as described elsewhere (Prins H J, et al. Tissue Eng Part A. 2009, 15:3741-3751). To minimalize inter-individual variation, all experiments were performed with cells from a pool of BMMSCs derived from twelve MM patients at passage 3.

[7] = test system: survivin, Mcl-1, XIAP and cIAP2; details: cited from earlier work
[8] = test system: pro-apoptotic signaling, cleavage of caspase-3 and PARP; experiment: Western blotting of FL118-treated MM cell lines; type: cell-based, human
Protocol: Western blotting: Untreated or FL118 treated (16 h) MM cell lines were washed twice with ice-cold PBS. Cell pellets were then snap-frozen and stored at −80° C. until further use. Pellets were dissolved in Radioimmunoprecipitation (RIPA) lysis buffer, supplemented with protease inhibitor cocktail (Roche) and incubated on ice for 45 minutes. Lysates were centrifuged at 14000 g for 10 minutes at 4° C. and supernatant was collected. Protein concentrations were determined by a DC protein assays (Bio-Rad). Samples were separated on 4-20% Mini-protean TGX precast gels (Bio-Rad) and proteins were transferred to Immobilon-FL PVDF membrane (Merck Millipore). After 1 h blocking with Odyssey Block Buffer (LI-COR) at room temperature, membranes were incubated with primary antibodies over night at 4° C. (anti-Mcl-1, anti-survivin Santa Cruz; anti-XIAP, anti-Bcl-2, anti-PUMA, anti-p21 Waf/Cip1, anti-PARP, anti-caspase-3 Cell Signaling Technology; anti-p53 DAKO; anti-NOXA, anti-Actin Merck Millipore). Blots were visualized by Odyssey infrared imaging (LICOR Biosciences) using IRDye 680 Goat-anti-Rabbit (LI-COR Lincoln) and IRDye 800CW Goat-anti-Mouse IgG (LI-COR Lincoln) according to manufacturer's instructions. Band intensities were quantified using Odyssey software.

[9] = beagle dogs; cited from earlier work
[10] = BALE/cj mice; cited from earlier work
[11] = test system: Survivin; experiment: Intracellular staining of Survivin in patient MM cells; type: cell-based, human; details: FL118-susceptible RR patients, 16 h
Protocol: Intracellular staining Survivin and Mcl-1: Mcl-1 and survivin expression levels in MM cells of BMMNC patient samples were determined by intracellular staining followed by flow cytometry. Untreated or FL118 treated (16 h) patient samples were washed twice with cold PBS. Cells were blocked with human immunoglobulin and stained for CD38 (BD biosciences), CD138 (Bio-Connect) and live/dead cell marker. In addition, LUC- and Green fluorescence protein (GFP)-transduced UM9 MM-cells were incubated alone or a monolayer of 1×10^6 BMMSCs in a 100 mm dish for 24 or 48 hours. Non-adherent cells were harvested by taking culture medium from plates and washing plates with PBS by gentle pipetting. Adherent cells were harvested using Stem-Pro Accutase. Both adherent and non-adherent cells were blocked with human immunoglobulin and stained for CD105 (Synobiotechnology) and live/dead marker. The stained patient cells and UM9 cells were then fixated in 4% formaldehyde for 15 minutes at room temperature. After fixation, the cells were placed in ice cold 90% methanol for 30 minutes on ice for permeabilization and subsequently stored at −20° C. […] Expression levels were analyzed in viable CD38^+ CD138^+ patient MM cells and GFP^+ CD105^− UM9-cells using flow cytometry.

[12] = cited from earlier work

topoisomerase I (Top1), sequence (P11387 whole entry, species assumed): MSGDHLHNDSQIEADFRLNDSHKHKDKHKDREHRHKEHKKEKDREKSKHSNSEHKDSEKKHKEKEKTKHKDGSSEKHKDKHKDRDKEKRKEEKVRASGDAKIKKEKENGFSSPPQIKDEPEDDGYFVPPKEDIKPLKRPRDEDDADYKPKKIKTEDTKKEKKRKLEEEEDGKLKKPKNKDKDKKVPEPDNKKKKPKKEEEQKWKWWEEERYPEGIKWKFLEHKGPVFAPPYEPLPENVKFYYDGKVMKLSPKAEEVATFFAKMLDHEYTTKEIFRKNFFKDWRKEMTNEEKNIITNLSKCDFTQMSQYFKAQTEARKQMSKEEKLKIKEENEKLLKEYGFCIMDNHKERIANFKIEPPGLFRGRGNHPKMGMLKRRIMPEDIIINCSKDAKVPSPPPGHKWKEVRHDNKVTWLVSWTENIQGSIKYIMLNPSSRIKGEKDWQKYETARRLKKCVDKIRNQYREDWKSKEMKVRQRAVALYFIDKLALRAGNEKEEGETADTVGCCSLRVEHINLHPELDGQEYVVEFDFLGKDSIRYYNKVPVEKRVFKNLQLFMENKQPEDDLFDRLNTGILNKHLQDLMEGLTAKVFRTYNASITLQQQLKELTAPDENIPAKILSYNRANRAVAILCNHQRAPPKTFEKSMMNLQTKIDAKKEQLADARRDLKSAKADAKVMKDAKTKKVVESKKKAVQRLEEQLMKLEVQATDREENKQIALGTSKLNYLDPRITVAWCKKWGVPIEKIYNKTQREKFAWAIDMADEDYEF

Compound: CC[C@@]1(O)C(=O)OCc2c1cc1n(c2=O)Cc2cc3cc4c(cc3nc2-1)OCO4 [FL118]
- activity on irinotecan and topotecan-resistant human tumors ([1]; animal models): effectively overcomes
- tumor elimination ([1]; two-month experimental period): eliminate small and large volume human tumors without relapse in a high percentage of mice
- antitumor activity compared with FDA-approved anticancer drugs ([1]; versus irinotecan, topotecan, doxorubicin, 5-FU, gemcitabine, docetaxel, oxaliplatin, cytoxan, cisplatin): significantly better antitumor activity
- concentration range for inhibition of cancer cell growth [2]: high pM to low nM range
- activity on cisplatin-resistant pancreatic cancer cells [3]: preferentially targets and kills
- spheroid formation of pancreatic cancer stem cells [3]: inhibits
- concentration level for effects on Top1 activity [4]: μM levels
- toxic effects on resting T-cells or NK-cells ([5]; BMMNC samples from MM or PCL patients, 24 hours): no toxic effects
- toxic effects on PMA-activated CD25+ T-cells ([5]; healthy individuals, 48 hours): no toxic effects
- toxicity against BMMSCs ([6]; serial concentrations of FL118): minimal toxicity
- toxic effects on BMMSCs ([6]; up to a dose of 100 nM): no toxic effects
- inhibition of expression of survivin, Mcl-1, XIAP and cIAP2 [7]: selectively inhibits
- pro-apoptotic signaling ([8]; high- and intermediate-susceptible MM1.s and U266, 16 hours): promotes pro-apoptotic signaling
- pro-apoptotic signaling ([8]; low-susceptible L363, 16 hours): not
- hematopoietic and biochemical toxicities [9]: very low
- hematopoietic and biochemical toxicities [10]: very low
- levels of Survivin expression [11]: significantly reduced
- oral availability ([12]; in vivo, po): orally available
- pharmacokinetics (PK) profile ([12]; intravenous administration, accumulated in tumor, rapidly cleared in blood stream): favorable
